Reference: US20060270880A1, “7-Azaindole derivatives as cox2 inhibitors” (priority 2003, published 2006)

Biological target: T1, microsomal h-COX2 (Homo sapiens, UniProt P35354)
T1 construct: made in house; host or cells: baculovirus infected SF9 cells (microsomal preparation)
T1 sequence (P35354 18-604): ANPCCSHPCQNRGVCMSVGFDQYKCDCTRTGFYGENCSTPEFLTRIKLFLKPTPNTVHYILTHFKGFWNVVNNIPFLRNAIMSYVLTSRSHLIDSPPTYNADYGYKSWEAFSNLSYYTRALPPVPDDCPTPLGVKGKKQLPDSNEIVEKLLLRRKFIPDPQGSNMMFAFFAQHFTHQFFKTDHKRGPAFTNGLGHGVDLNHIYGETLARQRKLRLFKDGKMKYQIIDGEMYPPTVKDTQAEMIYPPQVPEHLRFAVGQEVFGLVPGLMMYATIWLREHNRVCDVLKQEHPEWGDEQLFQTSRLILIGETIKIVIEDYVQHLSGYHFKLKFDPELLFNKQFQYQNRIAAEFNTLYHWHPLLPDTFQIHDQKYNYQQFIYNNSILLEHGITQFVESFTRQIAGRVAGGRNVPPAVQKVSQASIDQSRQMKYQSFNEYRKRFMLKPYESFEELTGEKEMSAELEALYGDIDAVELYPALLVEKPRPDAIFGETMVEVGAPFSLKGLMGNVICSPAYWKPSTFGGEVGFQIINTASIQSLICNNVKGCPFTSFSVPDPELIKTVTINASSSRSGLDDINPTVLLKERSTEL
Assay: Microsomal assay: inhibition of microsomal h-COX2 (PGE2 by EIA)
Assay type: biochemical
Settings: microsomal preparation from baculovirus infected SF9 cells; 1 hour preincubation; 0.1 μM arachidonic acid, 10 minutes; read-out: IC50 values for inhibition of COX-2
Method: Inhibitory activity against microsomal h-COX2 was assessed against a microsomal preparation from baculovirus infected SF9 cells. An aliquot of microsomal preparation was thawed slowly on ice and a 1/40,000 dilution prepared from it into the assay buffer (sterile water, degassed with argon containing 100 mM HEPES (pH 7.4), 10 mM EDTA (pH7.4), 1 mM phenol, 1 mM reduced glutathione, 20 mg/ml gelatin and 0.001 mM Hematin). Once diluted the enzyme solution was then sonicated for 5 seconds (Branson sonicator, setting 4, 1 cm tip) to ensure a homogeneous suspension. 155 μl enzyme solution was then added to each well of a 96-well microtitre plate containing either 5 μl test und (40× required test concentration) or 5 μl DMSO for controls. Plates were then mixed and incubated at room temperature for 1 hour. Following the incubation period, 40 μl of 0.5 μM arachidonic acid was added to each well to give a final concentration of 0.1 μM. Plates were then mixed and incubated for exactly 10 minutes (room temperature) prior to addition of 25 μl 1M HCl (hydrochloric acid) to each well to stop the reaction. 25 μl of 1M NaOH (sodium hydroxide) was then added to each well to neutralise the solution prior to determination of PGE2 levels by enzyme immunoassay (EIA).

IC50	SMILES
≤ 500 nM	CCC(CC)Cn1ccc2ccc(-c3ccc(S(C)(=O)=O)cc3)nc21 [Example 10]
≤ 500 nM	CS(=O)(=O)c1ccc(-c2ccc3ccn(CC4CCCCC4)c3n2)cc1 [Example 1, 1-(cyclohexanemethyl)-6-[4-(methylsulfonyl)phenyl]-7-azaindole]
≤ 500 nM	Cc1cn(CC2CCCCC2)c2nc(-c3ccc(S(C)(=O)=O)cc3)ccc12 [Example 6, 1-{cyclohexanemethyl)-3-methyl-6-[4-(methylsulfonyl)phenyl]-7-azaindole]
≤ 500 nM	CS(=O)(=O)c1ccc(-c2ccc3ccn(Cc4cccnc4)c3n2)cc1 [Example 14]
≤ 500 nM	CS(=O)(=O)c1ccc(-c2ccc3ccn(Cc4ccc(Cl)cc4)c3n2)cc1 [Example 18]
≤ 500 nM	CS(=O)(=O)c1ccc(-c2ccc3ccn(-c4ccc(F)cc4)c3n2)cc1 [Example 13]
≤ 500 nM	CS(=O)(=O)c1ccc(-c2ccc3ccn(Cc4ccccc4)c3n2)cc1 [Example 12]
≤ 500 nM	CC(C)Cc1cn(CC2CCCCC2)c2nc(-c3ccc(S(C)(=O)=O)cc3)ccc12 [Example 3, 1-(cyclohexanemethyl)-3-(2-methylprop-1-yl)-6-[4-(methylsulfonyl)phenyl]-7-azaindole]
≤ 500 nM	CS(=O)(=O)c1ccc(-c2ccc3ccn(-c4ccccc4)c3n2)cc1 [Example 2, 1-Phenyl-6-[4-(methylsulfonyl)phenyl]-7-azaindole]
≤ 500 nM	CS(=O)(=O)c1ccc(-c2ccc3ccn(S(=O)(=O)c4ccccc4)c3n2)cc1 [Example 9]
≤ 500 nM	CS(=O)(=O)c1ccc(-c2ccc3ccn(Cc4ccncc4)c3n2)cc1 [Example 15]
≤ 500 nM	CS(=O)(=O)c1ccc(-c2ccc3ccn(Cc4ccccn4)c3n2)cc1 [Example 16]

SMILES	IC50
CS(=O)(=O)c1ccc(-c2ccc3c(C=O)cn(CC4CCCCC4)c3n2)cc1 [Example 4, 1-(cyclohexanemethyl)-6-[4-(methylsulfonyl)phenyl]-7-azaindole-3-carboxaldehyde]	≤ 500 nM
